The values below come from patent US20100285038A1, “Factor Involved in Metastasis and Uses Thereof” (priority 2002, published 2010).

d = 2'-deoxy (DNA); m = 2'-O-methyl

Holding throughout (assay type): cell-based, human
The subject of series [1] is PRF1 (NM—019058) specific mRNA. The experiment in a line: PRF1 mRNA knock-down by real time RT-PCR (Taqman) in transfected PC-3 cells. As to conditions: PC-3 cells seeded on matrigel; standardized to internal p110α mRNA levels; DCt method. How it is done: Transfections were carried out in 96 well or 10-cm plates (at 30% to 50% confluency) by using various cationic lipids such as Oligofectamine, Lipofectamine (Life Technologies), NC388 (Ribozyme Pharmaceuticals, Inc., Boulder, Colo.), or FuGene 6 (Roche) according to the manufacturer's instructions. GeneBlocs were transfected by adding pre-formed 5× concentrated complex of GeneBloc and lipid in serum-free medium to cells in complete medium. The total transfection volume was 100 μl for cells plated in 96 wells and 10 ml for cells in 10 cm plates. The final lipid concentration was 0.8 to 1.2 μg/ml depending on cell density; the GeneBloc concentration is indicated in each experiment.
The RNA of cells transfected in 96-wells was isolated and purified using the Invisorb RNA HTS 96 kit (InVitek GmbH, Berlin). Inhibition of PRF1 mRNA expression was detected by real time RT-PCR (Taqman) analysis using 300 nM PRF1 5′ primer, 300 nM PRF1 3′ primer and 100 nM of the PRF1 Taqman probe Fam-Tamra labelled. […]
PC3 cells were transfected and seeded on matrigel as described and growth was monitored. mRNA was isolated from an aliquot of the cells seeded on matrigel and analysed using Taqman assay (left panel). […]

In another series the test system is PC-3 cells. The experiment in a line: In vitro growth on Matrigel matrix. As to conditions: PC-3 cells transfected with GeneBloc; versus corresponding mismatched oligonucleotides. The protocol:
PC3 cells were treated with 10 μM LY294002 or DMSO when seeded on Matrigel. If cells were transfected previous to seeding cells were transfected with GeneBloc and trypsinized 48 h post transfection. The cells were washed in medium and seeded into duplicate 24-wells (100.000 cells per well) pre-coated with 250 μl matrigel basement membrane matrix (Becton Dickinson). After incubation for 24 to 72 h photographs were taken at 5× magnification with an Axiocam camera attached to an Axiovert 5100 microscope (Zeiss).
A more confluent growth of the cells is taken as an indication that their metastasis and migration behavior is increased which allows the cells to spread over the three-dimensional structure provided by the matrigel. The result of this example is depicted in FIG. 5.
PC3 cells were transfected and seeded on matrigel as described and growth was monitored. mRNA was isolated from an aliquot of the cells seeded on matrigel and analysed using Taqman assay (left panel). PRF1 (NM_019058) specific mRNA was standardized to internal p110α mRNA levels. A PTEN specific GeneBloc is used as a negative control in the PTEN^−/− PC-3 cells and a p110β specific GeneBloc is used as a positive control for growth in extracellular matrix. […]

A further series concerns PRF1 protein. As to the kind of experiment: Western blot analysis of PRF1 protein expression in PC-3 cells. How it is done:
A polyclonal antibody was generated against PRF1 using standard techniques. The polyclonal antibody thus obtained was tested for its specificity for PRF1. For that purpose, cell lysates from PC-3 cells treated with PRF1 specific antisense molecules, more particularly gene blocks, or mismatches thereof and cells transfected with expression plasmides for recombinant HA-tagged PRF1 were prepared. The lysates were analysed by Western blot analysis using the polyclonal antibody and the results are depicted in FIG. 8 A.
(§1) To investigate whether PI 3-kinase activity has an impact on PRF1 protein expression, PC-3 cells were treated either with LY294002 or with DMSO as control. Analysis was performed by Western Blot analysis using the polyclonal antibody as detection means for PRF1 protein. Apart from PRF1 protein, also expression of Akt and phosphorylated Akt (P*Akt) was monitored using respective specific antibodies. Additionally, the expression of p110α and p85 was monitored.
To investigate whether the expression of PRF1 at the protein level would also be dependent on Akt (PKB) activity and HIF1α activity PC-3 cells were treated with Akt specific antisense molecules. More particularly, two antisense molecules, designated Akt1-GB and Akt2-molecule were used with the readout being the same as discussed in connection with FIG. 9, whereby, additionally, the HIF1α protein expression was monitored using a commercially available protein G-purified polyclonal antibody (R&DSystems, Lot Number: IUGO13071).
The same experiment using the same markers for monitoring except Akt and P*-Akt was carried out with cells grown under hypoxic conditions which was realized by treating the cells with CoCl2. Two different forms of antisense molecules, namely HIF1α-GB66 and HIF1α-GB67 were used and respective mismatches used as controls.
A lane of the Blot represents the cell lysate of the cells shown in the corresponding photograph. As a read-out, p110 alpha and p85 are shown as loading control and the component of the PI-3K pathway investigated, i.e. AKT, monitored as P*AKT, HIF1 alpha and PRF1.

For series [2], the system named is PI 3-kinase (p110α and p85). As to the kind of experiment: Western blot analysis of PI 3-kinase (p110α and p85) expression in PC-3 cells. As to conditions: lysates of PC-3 cells treated with PRF1 specific GeneBloc (FIG. 8A).
The subject of series [3] is Akt and phosphorylated Akt (P*Akt). The experiment in a line: Western blot analysis of Akt and phosphorylated Akt in PC-3 cells. As to conditions: DMSO as control (FIG. 9A). The protocol:
as §1

For “GeneBloc 70043: third generation antisense oligonucleotide directed to PRF1 mRNA, SEQ ID NO. 7 (antisense CCCAAAAGTTCAGTCGUCUCU; sugars from the 5' end m6 d9 m6, backbone and methylation of C not given here; DNA gap phosphorothioate-linked, flank linkages not clearly stated, further chemistry not fully specified)”, in series [1], the “knockdown of the mRNA of PRF1” value was “significant knockdown”. For the same molecule, in the series with PC-3 cells, the growth on matrigel entry is given as “Specific growth inhibition”. For the same molecule, the “expressed PRF1 protein” value with PRF1 protein (lysates of PC-3 cells treated with PRF1 specific GeneBlocs or mismatches, polyclonal antibody (FIG. 8A)) is recorded as “clear reduction”. Moreover, the “PI 3-kinase expression (p110α and p85 specific antibodies)” value in series [2] was “still being extensively expressed”.

As to `O=c1cc(N2CCOCC2)oc2c(-c3ccccc3)cccc12` [LY294002, 2-(4-morpholinyl)-8-phenylchromone], the PRF1 protein expression result with PRF1 protein (PC-3 cells, after 72 and 96 h, DMSO as control (FIG. 9A)) was “down regulated”. In series [3], the “Akt and phosphorylated Akt” value is given as “down regulated”.
